Reference: PMC12028158, “Synthesis and In Vitro Evaluation of the Anticancer Effect of Novel Phosphonium Vindoline Derivatives” (International Journal of Molecular Sciences, 2025)
Read-outs that look alike come from different tables or passages of the source.

Experiments:
Type in all cases: cell-based
HS 578T = assay: NCI60 five-dose screen; settings: Homo sapiens, HS 578T, Breast Cancer, read-out: GI50
NCI-H23 = assay: NCI60 five-dose screen; settings: Homo sapiens, NCI-H23, Non-small Cell Lung Cancer, read-out: GI50
RPMI-8226 = assay: NCI60 one-dose screen; settings: Homo sapiens; RPMI-8226, 10 μM, one-dose; read-out: Growth percent
SF-268 = assay: NCI60 five-dose screen; settings: Homo sapiens, SF-268, CNS Cancer, read-out: GI50
UO-31 = assay: NCI60 five-dose screen; settings: Homo sapiens, UO-31, Renal Cancer, read-out: GI50
[1] = system: 60 human tumor cell lines (NCI60); assay: NCI60 one-dose screen, overall mean; settings: one-dose; for activity at 10 µM: Homo sapiens, read-out: Mean growth percent
MDA-MB231ATCC = assay: NCI60 five-dose screen; settings: Homo sapiens, MDA-MB-231, MDA-MB231ATCC, Breast Cancer, read-out: GI50
NCI-H322M [2] = assay: NCI60 five-dose screen; settings: Homo sapiens, Non-small Cell Lung Cancer, read-out: GI50
DU-145 = assay: NCI60 five-dose screen; settings: Homo sapiens, DU-145, Prostate Cancer, read-out: GI50
MALME-3M [3] = assay: NCI60 one-dose screen; settings: Homo sapiens; MALME-3M, 10 μM, one-dose; read-out: Growth percent
KM12 = assay: NCI60 five-dose screen; settings: Homo sapiens, read-out: GI50
OVCAR-4 = assay: NCI60 one-dose screen; settings: Homo sapiens; OVCAR-4, 10 μM, one-dose; read-out: Growth percent
HOP-92 = assay: NCI60 five-dose screen; settings: Homo sapiens, HOP-92, Non-small Cell Lung Cancer, read-out: GI50
SNB-19 = assay: NCI60 one-dose screen; settings: Homo sapiens; SNB-19, 10 μM, one-dose; read-out: Growth percent
HL-60(TB) = assay: NCI60 five-dose screen; settings: Homo sapiens, read-out: GI50
NCI-H460 = assay: NCI60 one-dose screen; settings: Homo sapiens; NCI-H460, 10 μM, one-dose; read-out: Growth percent
SK-MEL-28 = assay: NCI60 one-dose screen; settings: Homo sapiens; SK-MEL-28, 10 μM, one-dose; read-out: Growth percent
NCI-H322M [4] = assay: NCI60 one-dose screen; settings: Homo sapiens, 10 μM, one-dose, read-out: Growth percent
SR = assay: NCI60 five-dose screen; settings: Homo sapiens, Leukemia, five-dose, read-out: GI50
SK-MEL-5 = assay: NCI60 one-dose screen; settings: Homo sapiens; SK-MEL-5, 10 μM, one-dose; read-out: Growth percent
SNB-75 [5] = assay: NCI60 five-dose screen; settings: Homo sapiens, SNB-75, CNS Cancer, read-out: GI50
Breast Cancer panel = assay: NCI60 five-dose screen, panel mean; settings: Homo sapiens, mean over Breast Cancer panel
OVCAR-3 = assay: NCI60 one-dose screen; settings: Homo sapiens; OVCAR-3, 10 μM, one-dose; read-out: Growth percent
SNB-75 [6] = assay: NCI60 one-dose screen; settings: Homo sapiens; SNB-75, 10 μM, one-dose; read-out: Growth percent
HCT-116 = assay: NCI60 one-dose screen; settings: Homo sapiens; HCT-116, 10 μM, one-dose; read-out: Growth percent
NCI/ADR-RES = assay: NCI60 five-dose screen; settings: Homo sapiens, Ovarian Cancer, read-out: GI50
A549/ATCC = assay: NCI60 one-dose screen; settings: Homo sapiens; A549/ATCC, 10 μM, one-dose; read-out: Growth percent
SK-MEL-2 = assay: NCI60 five-dose screen; settings: Homo sapiens, read-out: GI50
SK-OV-3 = assay: NCI60 one-dose screen; settings: Homo sapiens; SK-OV-3, 10 μM, one-dose; read-out: Growth percent
ACHN = assay: NCI60 one-dose screen; settings: Homo sapiens, 10 μM, one-dose, read-out: Growth percent
COLO 205 = assay: NCI60 five-dose screen; settings: Homo sapiens, read-out: GI50
MALME-3M [7] = assay: NCI60 five-dose screen; settings: Homo sapiens, MALME-3M, Melanoma, read-out: GI50
SN12C = assay: NCI60 one-dose screen; settings: Homo sapiens, 10 μM, one-dose, read-out: Growth percent
SF-539 = assay: NCI60 five-dose screen; settings: Homo sapiens, SF-539, CNS Cancer, read-out: GI50
K-562 = assay: NCI60 one-dose screen; settings: Homo sapiens, K562; K-562, 10 μM, one-dose; read-out: Growth percent
[8] = system: 60 human tumor cell lines (NCI60); assay: NCI60 five-dose screen, overall mean; settings: mean over all 60 human cancer cell lines, read-out: GI50 Mean
OVCAR-5 = assay: NCI60 one-dose screen; settings: Homo sapiens; OVCAR-5, 10 μM, one-dose; read-out: Growth percent

**Q.** What does the source list for `CC[C@]12C=CCN3CC[C@@]4(c5ccc(OC)cc5N(C)[C@H]4[C@@](O)(C(=O)OC)[C@@H]1OC(=O)CCC[P+](c1cc(C)c(OC)c(C)c1)(c1cc(C)c(OC)c(C)c1)c1cc(C)c(OC)c(C)c1)[C@@H]32` [9e]?
**A.** GI50 (HS 578T; five-dose): 0.185 µM; GI50 (NCI-H23; five-dose): 0.183 µM; activity at 10 µM (RPMI-8226): -98.3%; GI50 (SF-268; five-dose): 0.231 µM; GI50 (UO-31; five-dose): 1.48 µM; activity at 10 µM ([1]; mean over 60 cell lines, 10 μM): -97.1%; Mean growth percent ([1]; mean over 60 cell lines, 10 μM): −97.13%; average reduction / average cell death ([1]; 10 µM, average over cell lines): more than 70%; GI50 (MDA-MB231ATCC; five-dose): 0.293 µM; GI50 (NCI-H322M [2]; five-dose): 0.342 µM; GI50 (DU-145; five-dose): 0.3 µM; activity at 10 µM (MALME-3M [3]): -98.4%; GI50 (KM12; KM12, KM12, Colon Cancer, five-dose): 0.047 µM; GI50 (KM12; KM12, colon cancer KM12, text): < 0.1 µM; activity at 10 µM (OVCAR-4): -98.7%; GI50 (HOP-92; five-dose): 0.201 µM; activity at 10 µM (SNB-19): -97.1%; GI50 (HL-60(TB); HL-60, HL-60(TB), Leukemia, five-dose): 0.039 µM; GI50 (HL-60(TB); HL-60, leukemia HL-60(TB)): < 0.1 µM; activity at 10 µM (NCI-H460): -89.5%; activity at 10 µM (SK-MEL-28): -98.2%; activity at 10 µM (NCI-H322M [4]): -98.1%; GI50 (SR): 0.144 µM; activity at 10 µM (SK-MEL-5): -97.5%; GI50 (SNB-75 [5]; five-dose): 0.195 µM; GI50 (Breast Cancer panel; read-out: Mean GI50): 0.14 µM; activity at 10 µM (OVCAR-3): -99%; activity at 10 µM (SNB-75 [6]): -98.9%; activity at 10 µM (HCT-116): -93%; GI50 (NCI/ADR-RES; five-dose): 5.11 µM; activity at 10 µM (A549/ATCC): -92.9%; GI50 (SK-MEL-2; SK-MEL-2, SK-MEL-2, Melanoma, five-dose): 0.06 µM; GI50 (SK-MEL-2; SK-MEL-2, melanoma SK-MEL-2, text): < 0.1 µM; activity at 10 µM (SK-OV-3): -97.7%; activity at 10 µM (ACHN): -96.5%; GI50 (COLO 205; COLO 205, COLO 205, Colon Cancer, five-dose): 0.091 µM; GI50 (COLO 205; COLO 205, colon cancer COLO-205, text): < 0.1 µM; GI50 (MALME-3M [7]; five-dose): 0.288 µM; activity at 10 µM (SN12C): -96.7%; GI50 (SF-539; five-dose): 0.307 µM; activity at 10 µM (K-562): -97.5%

**Q.** What does the source list for `CCC12C=CCN3CCC4(c5ccc(OC)cc5N(C)C4C(O)(C(=O)OC)C1OC(=O)c1ccc(C[P+](c4ccccc4)(c4ccccc4)c4ccccc4)cc1)C32` (stereo not drawn) [compound 12]?
**A.** GI50 (HS 578T): 1.27 µM; GI50 (NCI-H23): 2.81 µM; activity at 10 µM (RPMI-8226): -50.8%; GI50 (SF-268): 1.28 µM; GI50 (UO-31): 20 µM; activity at 10 µM ([1]; mean over 60 cell lines, 10 μM): -37.1%; cytotoxicity (in words) ([1]; 10 µM): moderate cytotoxicity; GI50 (MDA-MB231ATCC): 0.686 µM; GI50 (NCI-H322M [2]): 4.76 µM; GI50 (DU-145): 1.61 µM; activity at 10 µM (MALME-3M [3]): -95.5%; GI50 (KM12; KM12, KM12, Colon Cancer): 0.514 µM; activity at 10 µM (OVCAR-4): 7.65%; GI50 (HOP-92): 0.404 µM; activity at 10 µM (SNB-19): -72.2%; GI50 (HL-60(TB); HL-60, HL-60(TB), Leukemia): 0.297 µM; activity at 10 µM (NCI-H460): -62.8%; activity at 10 µM (SK-MEL-28): -92.4%; activity at 10 µM (NCI-H322M [4]): 19.9%; activity at 10 µM (SK-MEL-5): -98.5%; GI50 (SNB-75 [5]): 1.11 µM; GI50 (Breast Cancer panel; read-out: GI50 Mean): 0.61 µM; activity at 10 µM (OVCAR-3): -63.4%; activity at 10 µM (SNB-75 [6]): -61.7%; activity at 10 µM (HCT-116): -62.8%; GI50 (NCI/ADR-RES): > 100 µM; activity at 10 µM (A549/ATCC): 31%; GI50 [8]: 4.33 µM; activity at 10 µM (OVCAR-5): 2.52%; GI50 (SK-MEL-2; SK-MEL-2, SK-MEL-2, Melanoma): 1.27 µM; activity at 10 µM (SK-OV-3): -13.2%; activity at 10 µM (ACHN): 73.7%; GI50 (COLO 205; COLO 205, COLO 205, Colon Cancer): 0.313 µM; GI50 (MALME-3M [7]): 0.652 µM; activity at 10 µM (SN12C): -46.5%; GI50 (SF-539): 1.26 µM; activity at 10 µM (K-562): -54.9%
